What all share (type): functional
Assay [1] has as its system Micrococcus flavus. Kind of assay: Antibacterial activity against Micrococcus flavus clinical isolate at 5 mg/ml after 24 hr by disk diffusion method. Particulars: read-out: DIZ.
The subject of assay [2] is Morganella morganii. Description: Antibacterial activity against Morganella morganii clinical isolate at 5 mg/ml after 24 hr by disk diffusion method. The following applies: for zone of inhibition at 5000 µg/mL: read-out: DIZ. A general note: A growth-free zone around the sample is the usual read-out of agar diffusion tests.
The subject of assay [3] is Escherichia coli. Kind of assay: Antibacterial activity against Escherichia coli ATCC 27853 at 5 mg/ml after 24 hr by disk diffusion method. The following applies: for zone of inhibition at 5000 µg/mL: read-out: DIZ.
In assay [4] the test system is Candida albicans. Kind of assay: Antifungal activity against Candida albicans clinical isolate by NCCLS broth microdilution method. In general terms: In broth dilution the organism is exposed to a series of concentrations in liquid medium.
The test system of assay [5] is Bacillus cereus. Description: Antibacterial activity against Bacillus cereus ATCC 6633 by NCCLS broth microdilution method.
Assay [6] relates to Staphylococcus aureus. Kind of assay: Antibacterial activity against Staphylococcus aureus ATCC 25923 by NCCLS broth microdilution method.
Assay [7] has as its system Candida albicans. Kind of assay: Antifungal activity against Candida albicans clinical isolate at 5 mg/ml after 48 hr by disk diffusion method. Particulars: read-out: DIZ.
Assay [8] relates to Bacillus cereus. Description: Antibacterial activity against Bacillus cereus ATCC 6633 at 5 mg/ml after 24 hr by disk diffusion method. Particulars: ATCC 6633, 24 h, read-out: DIZ.
Assay [9] has as its system Staphylococcus aureus. Kind of assay: Antibacterial activity against Staphylococcus aureus ATCC 25923 at 5 mg/ml after 24 hr by disk diffusion method. Particulars: for zone of inhibition at 5000 µg/mL: ATCC 25923, 24 h, read-out: DIZ.
Assay [10] relates to Micrococcus flavus. Description: Antibacterial activity against Micrococcus flavus clinical isolate by NCCLS broth microdilution method.
Assay [11] concerns Morganella morganii. Kind of assay: Antibacterial activity against Morganella morganii clinical isolate by NCCLS broth microdilution method.
In assay [12] the test system is Escherichia coli. Kind of assay: Antibacterial activity against Escherichia coli ATCC 27853 by NCCLS broth microdilution method.
Assay [13] has as its system Staphylococcus aureus. Kind of assay: Antibacterial activity against Staphylococcus aureus ATCC 25923 at 10 ug/disc after 24 hr by disk diffusion method. The following applies: ATCC 25923, 24 h, read-out: DIZ.
Assay [14] relates to Bacillus cereus. Kind of assay: Ratio of compound to oxacillin activity against Bacillus cereus ATCC 6633.
Assay [15] deals with Candida albicans. Kind of assay: Ratio of compound to ketoconazole activity against Candida albicans.
The subject of assay [16] is Micrococcus flavus. Description: Ratio of compound to tetracycline activity against Micrococcus flavus clinical isolate.
Assay [17] deals with Candida albicans. Description: Antifungal activity against Candida albicans clinical isolate at 50 ug/disk after 48 hr by disk diffusion method. The following applies: read-out: DIZ.
Assay [18] concerns Escherichia coli. Kind of assay: Antibacterial activity against Escherichia coli ATCC 27853 at 10 U/disk after 24 hr by disk diffusion method.
Assay [19] concerns Bacillus cereus. Kind of assay: Antibacterial activity against Bacillus cereus ATCC 6633 at 1 ug/disk after 24 hr by disk diffusion method. Particulars: ATCC 6633, 24 h, read-out: DIZ.
Assay [20] deals with Morganella morganii. Kind of assay: Antibacterial activity against Morganella morganii clinical isolate at 30 ug/disk after 24 hr by disk diffusion method. Particulars: read-out: DIZ.
Assay [21] deals with Micrococcus flavus. Kind of assay: Antibacterial activity against Micrococcus flavus clinical isolate at 30 ug/disk after 24 hr by disk diffusion method. Particulars: read-out: DIZ.

Each structure is given as a SMILES string. Values after ≈ are worked out from the molar mass of the structure shown. Active and inactive are the calls of the source. No cut-off for these calls is given here.

Turning to `Fc1cc(Cl)ccc1I`, the zone of inhibition at 5000 µg/mL is 11 mm in the assay with Micrococcus flavus [1]; 13 mm in the assay with Morganella morganii [2]; 11 mm in the assay with Escherichia coli [3]; 14 mm with Candida albicans [7]; 13 mm in the assay with Bacillus cereus [8]; 12 mm with Staphylococcus aureus [9]. Besides, the MIC (in general, the lowest concentration found to suppress growth) in the assay on Candida albicans [4] was determined as 2500 µg/mL (≈ 9.75 mM); in the assay with Bacillus cereus [5], 2000 µg/mL (≈ 7.8 mM); against Staphylococcus aureus [6], 2500 µg/mL (≈ 9.75 mM); in the assay with Micrococcus flavus [10] it was 2500 µg/mL (≈ 9.75 mM); in the assay on Morganella morganii [11], 2500 µg/mL (≈ 9.75 mM); in the assay on Escherichia coli [12], 2500 µg/mL (≈ 9.75 mM).

For `CC1(C)S[C@@H]2[C@H](NC(=O)[C@H](N)c3ccccc3)C(=O)N2[C@H]1C(=O)O` [AMPICILLIN], the zone of inhibition at 10 µg/disc in the assay on Staphylococcus aureus [13] was 9 mm.

Turning to `Fc1cc(Cl)ccc1Cl` [2,5-DICHLOROFLUOROBENZENE], the zone of inhibition at 5000 µg/mL in the assay with Micrococcus flavus [1] turned out to be 14 mm; with Morganella morganii [2] it was 12 mm; in the assay on Escherichia coli [3], 11 mm; with Candida albicans [7] it was 17 mm; in the assay on Bacillus cereus [8], 16 mm; with Staphylococcus aureus [9], 15 mm. Further, the MIC came to 2000 µg/mL (≈ 12.1 mM) in the assay with Candida albicans [4]; 2000 µg/mL (≈ 12.1 mM) against Bacillus cereus [5]; 2500 µg/mL (≈ 15.2 mM) in the assay with Staphylococcus aureus [6]; 2500 µg/mL (≈ 15.2 mM) with Micrococcus flavus [10]; 2500 µg/mL (≈ 15.2 mM) against Morganella morganii [11]; 3000 µg/mL (≈ 18.2 mM) against Escherichia coli [12].

`Fc1ccc(Cl)cc1Br`: the zone of inhibition at 5000 µg/mL is 32 mm in the assay with Micrococcus flavus [1], 30 mm in the assay on Candida albicans [7] and 15 mm in the assay with Bacillus cereus [8]. The “diameter of the inhibition zone (DIZ)” value in the assay on Morganella morganii [2], in the assay with Escherichia coli [3] and in the assay with Staphylococcus aureus [9] was “inactive” throughout. In addition, the MIC against Candida albicans [4], against Bacillus cereus [5], in the assay on Staphylococcus aureus [6], in the assay with Micrococcus flavus [10], in the assay with Morganella morganii [11] and against Escherichia coli [12] was 2500 µg/mL (≈ 11.9 mM) in each case. For the same compound, the Ratio in the assay on Bacillus cereus [14], in the assay on Candida albicans [15] and with Micrococcus flavus [16] was 2 each time.

Consider `CC(=O)N1CCN(c2ccc(OCC3COC(Cn4ccnc4)(c4ccc(Cl)cc4Cl)O3)cc2)CC1` (stereo unspecified) [KETOCONAZOLE], for which the zone of inhibition at 50 µg/disc in the assay on Candida albicans [17] was 16 mm.

Regarding `CC1(C)S[C@@H]2[C@H](NC(=O)Cc3ccccc3)C(=O)N2[C@H]1C(=O)O` [PENICILLIN G], the “diameter of the inhibition zone (DIZ)” value in the assay with Escherichia coli [18] amounted to 19 mm.

Take `Cc1onc(-c2ccccc2)c1C(=O)N[C@@H]1C(=O)N2[C@@H]1SC(C)(C)[C@@H]2C(=O)O` [OXACILLIN]: the zone of inhibition at 1 µg/disc in the assay with Bacillus cereus [19] stood at 9 mm.

Take `Fc1cc(Cl)ccc1Br`: the zone of inhibition at 5000 µg/mL in the assay with Micrococcus flavus [1] came out at 13 mm; in the assay with Escherichia coli [3] it was 13 mm; in the assay on Candida albicans [7] it was 11 mm; in the assay with Bacillus cereus [8], 17 mm; in the assay with Staphylococcus aureus [9] it was 14 mm. Besides, the “diameter of the inhibition zone (DIZ)” value in the assay with Morganella morganii [2] is “inactive”. Also, the MIC amounted to 2500 µg/mL (≈ 11.9 mM) in the assay with Candida albicans [4]; 2000 µg/mL (≈ 9.55 mM) with Bacillus cereus [5]; 2500 µg/mL (≈ 11.9 mM) against Staphylococcus aureus [6]; 2500 µg/mL (≈ 11.9 mM) in the assay with Micrococcus flavus [10]; 2500 µg/mL (≈ 11.9 mM) against Morganella morganii [11]; 3000 µg/mL (≈ 14.3 mM) against Escherichia coli [12].

With `Fc1ccc(Cl)cc1I`, the zone of inhibition at 5000 µg/mL came out at 20 mm in the assay on Micrococcus flavus [1]; 10 mm with Morganella morganii [2]; 10 mm in the assay on Escherichia coli [3]; 14 mm with Candida albicans [7]; 16 mm with Bacillus cereus [8]; 13 mm with Staphylococcus aureus [9]. The MIC in the assay on Candida albicans [4] is 2500 µg/mL (≈ 9.75 mM); in the assay with Bacillus cereus [5], 2000 µg/mL (≈ 7.8 mM); in the assay on Staphylococcus aureus [6], 2000 µg/mL (≈ 7.8 mM); against Micrococcus flavus [10], 1500 µg/mL (≈ 5.85 mM); in the assay on Morganella morganii [11], 1500 µg/mL (≈ 5.85 mM); in the assay with Escherichia coli [12], 3000 µg/mL (≈ 11.7 mM).

`O=C(N[C@H](CO)[C@H](O)c1ccc([N+](=O)[O-])cc1)C(Cl)Cl` [CHLORAMPHENICOL]: the zone of inhibition at 30 µg/disc with Morganella morganii [20] turned out to be 15 mm.

With `CN(C)[C@@H]1C(O)=C(C(N)=O)C(=O)[C@@]2(O)C(O)=C3C(=O)c4c(O)cccc4[C@@](C)(O)[C@H]3C[C@@H]12` [TETRACYCLINE], the zone of inhibition at 30 µg/disc in the assay with Micrococcus flavus [21] turned out to be 20 mm.

Take `Fc1ccc(Cl)cc1Cl` [2,4-DICHLOROFLUOROBENZENE]: the zone of inhibition at 5000 µg/mL is 11 mm in the assay with Micrococcus flavus [1]; 12 mm in the assay with Escherichia coli [3]; 12 mm with Candida albicans [7]; 19 mm in the assay on Bacillus cereus [8]; 15 mm in the assay with Staphylococcus aureus [9]. For the same compound, the “diameter of the inhibition zone (DIZ)” value in the assay on Morganella morganii [2] was “inactive”. Also, the MIC is 1 µg/mL (≈ 0.00606 mM) against Candida albicans [4]; 1500 µg/mL (≈ 9.09 mM) against Bacillus cereus [5]; 1200 µg/mL (≈ 7.27 mM) in the assay with Staphylococcus aureus [6]; 1500 µg/mL (≈ 9.09 mM) in the assay on Micrococcus flavus [10]; 1500 µg/mL (≈ 9.09 mM) in the assay with Morganella morganii [11]; 1200 µg/mL (≈ 7.27 mM) with Escherichia coli [12].

(Values after ChEMBL document CHEMBL3044928, “Synthesis of 2,4-dihalogenofluorobenzenes and their antimicrobial and antifungal activity studies” (2007).)
